Values of other authors as cited in patent US20190125725A1, “PHARMACEUTICAL COMPOSITIONS COMPRISING BRIVARACETAM” (Jubilant Generics Limited, priority 2016, published 2019).

Details: High solubility and permeability

## CCC[C@@H]1CC(=O)N([C@@H](CC)C(N)=O)C1 [Brivaracetam, (2S)-2-[(4R)-2-oxo-4-propyltetrahydro-1H-pyrrol-1-yl] butanamide]
  Biopharmaceutics Classification System class: class I
